Results as given in PubChem BioAssay AID1933 (Broad Institute, 2009).
Inconclusive results are not listed. Calls of active or inactive are those of the source. How the calls were made is not given here.

System: BJ-TERT fibroblast viability, ATP luminescence
Test: BJ-TERT fibroblast viability loss – cell-based, RAS-independent, luminescence, dose response (AID 1933)

SMILES: CCSc1nc2ccccc2n1C(=O)/C=C/c1ccc(OC)c(OC)c1
- EC50: > 15 µM (inactive)

SMILES: COc1cc2c(c(OC)c1OC)-c1ccc(O)c(=O)cc1C(NC(C)=O)CC2 (configuration not stated)
- EC50: < 0.12 µM
